Test results: patent publication US20240092750A1, “AQUEOUS FORMULATIONS OF CYTOTOXIC TAXANES WITH CYCLODEXTRIN” (Northwestern University, priority 2022, published 2024)
“Also recorded” adds a separate entry of the source.

Legend:
[1] = biological target: T1, Tubulin protein (Sus scrofa, UniProt P02550+P02554); test: In vitro tubulin polymerization assay (turbidity at 350 nm); format: biochemical, porcine; conditions: 20 minutes, 37° C.
T1 construct: Tubulin protein (>99% pure, extracted from porcine brain); from tissue; host or cells: porcine brain
T1 sequence (P02554 whole entry): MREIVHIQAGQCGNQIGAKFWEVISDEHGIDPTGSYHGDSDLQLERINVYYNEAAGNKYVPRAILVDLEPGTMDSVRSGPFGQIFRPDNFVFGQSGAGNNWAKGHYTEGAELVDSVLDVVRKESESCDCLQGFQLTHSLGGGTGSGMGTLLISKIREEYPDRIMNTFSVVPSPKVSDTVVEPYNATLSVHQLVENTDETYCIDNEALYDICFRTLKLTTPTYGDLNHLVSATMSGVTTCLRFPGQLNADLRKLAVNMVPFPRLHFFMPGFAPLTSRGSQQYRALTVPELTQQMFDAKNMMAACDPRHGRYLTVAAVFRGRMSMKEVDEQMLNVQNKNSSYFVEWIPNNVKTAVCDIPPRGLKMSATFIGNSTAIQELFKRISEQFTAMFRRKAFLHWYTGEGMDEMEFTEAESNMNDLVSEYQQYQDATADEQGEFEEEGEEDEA
T1 sequence (P02550 whole entry): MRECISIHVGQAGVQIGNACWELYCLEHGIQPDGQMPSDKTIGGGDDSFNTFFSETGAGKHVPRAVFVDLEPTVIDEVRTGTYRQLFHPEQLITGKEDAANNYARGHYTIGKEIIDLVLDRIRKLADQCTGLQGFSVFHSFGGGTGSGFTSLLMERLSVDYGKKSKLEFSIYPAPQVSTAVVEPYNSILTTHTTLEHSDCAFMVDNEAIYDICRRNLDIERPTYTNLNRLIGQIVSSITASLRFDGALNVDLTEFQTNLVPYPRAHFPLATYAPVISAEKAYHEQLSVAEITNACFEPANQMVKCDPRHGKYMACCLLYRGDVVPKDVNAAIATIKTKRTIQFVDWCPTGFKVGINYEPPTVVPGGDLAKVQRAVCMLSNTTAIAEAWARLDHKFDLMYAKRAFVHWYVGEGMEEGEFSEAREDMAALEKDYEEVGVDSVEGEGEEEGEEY
Procedure: Tubulin protein (>99% pure, extracted from porcine brain) was reconstituted in buffer solution (80 mM PIPES pH 6.9, 2 mM MgCl2, 0.5 mM EGTA, and 10% (v/v) glycerol) to a concentration of 1 mg/mL. 100 μL of this tubulin solution was added per well of a black, 96-well plate, which had been warmed to 37° C. prior to the experiment. This was followed by the addition of either guanosine triphosphate (GTP), Paclitaxel (PTX), or ODDA-PTX-CyD, where the final concentration in each respective well was 1 mM GTP, 10 μM PTX, or 10 μM ODDA-PTX-CyD. Changes in turbidity of the samples were monitored via 96-well plate reader at 350 nm, where a recorded increase in optical density supports the formation of microtubules in solution. Each set of conditions were measured in triplicate and monitored over 20 minutes at 37° C.

[2] = Aqueous solubility tests in milliQ water or dPBS
Procedure: Solubility Tests: To verify ODDA-PTX aqueous solubility, characterization methods in milliQ water or dPBS were performed.

In the case of `Nc1nc2c(ncn2[C@@H]2O[C@H](COP(=O)(O)OP(=O)(O)OP(=O)(O)O)[C@@H](O)[C@H]2O)c(=O)[nH]1` [GTP, guanosine triphosphate], the “change in optical density (microtubule formation)” value ([1]; 1 mM GTP) was “did not portray significant increases in optical density”.
With `CC(=O)O[C@H]1C(=O)[C@@]2(C)[C@H]([C@H](OC(=O)c3ccccc3)[C@]3(O)C[C@H](OC(=O)[C@H](O)[C@@H](NC(=O)c4ccccc4)c4ccccc4)C(C)=C1C3(C)C)[C@]1(OC(C)=O)CO[C@@H]1C[C@@H]2O` [paclitaxel] the “change in optical density (microtubule formation)” value ([1]; 10 μM) was “resulted in the formation of microtubules”.
In the case of `CC(=O)O[C@H]1C(=O)[C@@]2(C)[C@H]([C@H](OC(=O)c3ccccc3)[C@]3(O)C[C@H](OC(=O)[C@H](OC(=O)CCCCCCCCCCCCCCCCC(=O)O)[C@@H](NC(=O)c4ccccc4)c4ccccc4)C(C)=C1C3(C)C)[C@]1(OC(C)=O)CO[C@@H]1C[C@@H]2O` [ODDA-PTX, 1,18-octadecandioic acid-paclitaxel], the “solubility in water or buffer alone (in words)” value ([2]; water alone / buffer alone) was “insolubility; also recorded: not soluble in water alone” and the “aqueous solubility with respect to ODDA-PTX” value ([2]; with respect to ODDA-PTX) was 0.021 mg/mL.
